Experimental data from patent US11319299B2, “Substituted carboxamides as inhibitors of WDR5 protein-protein binding” (PROPELLON THERAPEUTICS INC., priority 2016, dated 2022).

target: WDR5 (Homo sapiens (Human), UniProt P61964); test: Surface Plasmon Resonance (SPR) assay, KD and residence time; format: binding; details: surface plasmon resonance (SPR) assay; read-out: WDR5 binding affinity (KD)

Row | Kd [nM] | Compound
1 | 2.51 | C[C@@H]1CN(c2cc(F)c(C3=CCN(C4CCCC4)CC3)cc2NC(=O)c2c[nH]c(=O)cc2C(F)(F)F)C[C@H](C)N1C [Example 231, N-[5-(1-cyclopentyl-3,6-dihydro-2H-pyridin-4-yl)-4-fluoro-2-[(3R,5S)-3,4,5-trimethylpiperazin-1-yl]phenyl]-6-oxo-4-(trifluoromethyl)-1H-pyridine-3-carboxamide]
2 | 1.4 | CC1CN(c2cc(F)c(-c3ccc(N(C)C)nc3)cc2NC(=O)c2c[nH]c(=O)cc2C(F)(F)F)CCN1C (stereo in doubt) [Example 219, N-[5-[6-(dimethylamino)pyridin-3-yl]-4-fluoro-2-[(3R)-3,4-dimethylpiperazin-1-yl]phenyl]-6-oxo-4-(trifluoromethyl)-1H-pyridine-3-carboxamide]
3 | 6.06 | C[C@@H]1CN(c2cc(F)c(-c3ccc(C(F)(F)F)cc3)cc2NC(=O)c2c[nH]c(=O)cc2C(F)(F)F)C[C@H](C)N1C [Example 144, N-[4-fluoro-2-[(3R,5S)-3,4,5-trimethylpiperazin-1-yl]-5-[4-(trifluoromethyl)phenyl]phenyl]-6-oxo-4-(trifluoromethyl)-1H-pyridine-3-carboxamide]
4 | 1.76 | COc1cnc(N2CC=C(c3cc(NC(=O)c4c[nH]c(=O)cc4C(F)(F)F)c(N4C[C@@H](C)N(C)[C@@H](C)C4)cc3F)CC2)nc1 [Example 366, N-[4-fluoro-5-[1-(5-methoxypyrimidin-2-yl)-3,6-dihydro-2H-pyridin-4-yl]-2-[(3R,5S)-3,4,5-trimethylpiperazin-1-yl]phenyl]-6-oxo-4-(trifluoromethyl)-1H-pyridine-3-carboxamide]
5 | 11.1 | C[C@@H]1CN(c2cc(F)c(-c3cnc(OCc4ccccc4)c(C#N)c3)cc2NC(=O)c2c[nH]c(=O)cc2C(F)(F)F)C[C@H](C)N1C [Example 99, N-[5-(5-cyano-6-phenylmethoxypyridin-3-yl)-4-fluoro-2-[(3R,5S)-3,4,5-trimethylpiperazin-1-yl]phenyl]-6-oxo-4-(trifluoromethyl)-1H-pyridine-3-carboxamide]
6 | 23.4 | Cc1nc(C(F)(F)F)c(C(=O)Nc2cc(-c3cnc(N4CCOCC4)nc3)c(F)cc2N2CCN(C)C(C)C2)s1 (stereo in doubt) [Example 199, N-[4-fluoro-5-(2-morpholin-4-ylpyrimidin-5-yl)-2-[(3R)-3,4-dimethylpiperazin-1-yl]phenyl]-2-methyl-4-(trifluoromethyl)-1,3-thiazole-5-carboxamide]

same assay, conditions: surface plasmon resonance (SPR); read-out: WDR5 binding affinity (KD)

Row | Kd [nM] | Compound
7 | 2.76 | C[C@@H]1CN(c2nccc(-c3cc(NC(=O)c4c[nH]c(=O)cc4C(F)F)c(N4C[C@@H](C)N(C)[C@@H](C)C4)cc3F)n2)C[C@H](C)O1 [Example 744, 4-(difluoromethyl)-N-[4-fluoro-5-[2-[(2R,6S)-2,6-dimethylmorpholin-4-yl]pyrimidin-4-yl]-2-[(3S,5R)-3,4,5-trimethylpiperazin-1-yl]phenyl]-6-oxo-1H-pyridine-3-carboxamide]
8 | 3.43 | C[C@@H]1CN(c2ncc(-c3cc(NC(=O)c4cn(C)c(=O)cc4C(F)F)c(N4CCN(C)[C@@H](C)C4)cc3F)cn2)CCO1 (racemic) [Example 460, 4-(difluoromethyl)-N-[4-fluoro-2-[(3S)-3,4-dimethylpiperazin-1-yl]-5-[2-[(2R)-2-methylmorpholin-4-yl]pyrimidin-5-yl]phenyl]-1-methyl-6-oxopyridine-3-carboxamide]
9 | 0.711 | CNC(=O)c1ccc(-c2cc(NC(=O)c3c[nH]c(=O)cc3C(F)F)c(N3CCN(C)C(C)C3)cc2F)cc1F (stereo in doubt) [Example 597, 4-(difluoromethyl)-N-[4-fluoro-5-[3-fluoro-4-(methylcarbamoyl)phenyl]-2-[(3R)-3,4-dimethylpiperazin-1-yl]phenyl]-6-oxo-1H-pyridine-3-carboxamide]

Row | Compound | Kd [nM]
10 | N-[4-fluoro-5-[2-[(2R)-2-propan-2-ylmorpholin-4-yl]pyrimidin-5-yl]-2-[(3S,5R)-3,4,5-trimethylpiperazin-1-yl]phenyl]-6-oxo-4-(trifluoromethyl)-1H-pyridine-3-carboxamide [Example 548] | 0.5
